This note sets out measurements from ChEMBL document CHEMBL6114974, “Development of novel BACE1 inhibitors with a hydroxyproline-derived N-amidinopyrrolidine scaffold” (Bioorg Med Chem, 2025).

The target of the experiment is Beta-secretase 1 (Homo sapiens, UniProt P56817). The experiment can be described thus: Inhibition of recombinant BACE1 (unknown origin) using H-Ile-Lys-Thr-Glu-Glu-Ile-Ser-Glu-Val-Asn-Leu-Asp-Ala-Glu-Phe-Arg-His-Asp-Ser-Gly-NH2 as substrate measured after 90 mins by HPLC analysis.
Sequence of Beta-secretase 1 (P56817 whole entry): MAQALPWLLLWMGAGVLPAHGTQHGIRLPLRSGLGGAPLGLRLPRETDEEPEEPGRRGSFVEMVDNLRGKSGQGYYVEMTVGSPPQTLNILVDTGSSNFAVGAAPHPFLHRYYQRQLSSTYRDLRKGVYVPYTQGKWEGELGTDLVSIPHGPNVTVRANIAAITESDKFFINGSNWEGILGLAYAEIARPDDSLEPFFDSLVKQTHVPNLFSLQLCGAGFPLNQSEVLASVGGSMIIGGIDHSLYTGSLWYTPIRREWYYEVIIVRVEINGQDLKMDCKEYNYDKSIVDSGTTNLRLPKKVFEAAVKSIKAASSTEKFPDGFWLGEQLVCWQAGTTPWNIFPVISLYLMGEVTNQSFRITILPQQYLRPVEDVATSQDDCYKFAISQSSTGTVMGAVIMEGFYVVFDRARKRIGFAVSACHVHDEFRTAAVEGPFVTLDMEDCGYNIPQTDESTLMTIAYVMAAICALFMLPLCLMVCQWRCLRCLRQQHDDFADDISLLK

Each structure is given as a SMILES string.

In general, IC50 refers to the concentration that gives 50% inhibition. Take `C[C@H]1OC[C@]2(c3cc(NC(=O)c4cnc(C(F)F)cn4)ccc3F)N=C(N)SC[C@H]12` [ELENBECESTAT]: the IC50 turned out to be 57 nM.
